Measured values published in US9790173B2, “Alpha-7 nicotinic acetylcholine receptor modulators and uses thereof-I” (MERCK SHARP & DOHME CORP., priority 2012, dated 2017).

Target: T1, rat α7 nAChRs (Rattus norvegicus, UniProt Q05941)
T1 construct: expressed in transfected cells; host or cells: GH4C1 cells (rat pituitary line) stably expressing α7 nAChR
Assay: Automated planar patch clamp (Patchliner) electrophysiology, α7 nAChR PAM activity
Type: cell-based
Design: key to Type I or Type II: I: Type 1 predominately affects the peak current; Type II modulators affect the peak current and also delay the desensitization of the receptor
Settings: for Type I or Type II: modulator type based on the electrophysiology trace; for activation at 3 µM: GH4-C1, 3 μM compound in the presence of acetylcholine, GH4C1 cells expressing rat α7 nAChRs, peak current, read-out: Peak potentiation at 3 μM compound
Protocol: Tested compounds were prepared by serial dilutions of 10 mM stock solution in DMSO to concentrations of the compound 1000 times higher than its final concentration. The DMSO stock solutions were then diluted 1:100 in the recording buffer bringing DMSO concentration to 1%. These intermediate solutions were further diluted 10 times with buffer to obtain final concentrations and lower DMSO concentration to 0.1%. […]
Compounds of the invention may be evaluated by electrophysiology using a Patchliner® (Nanion Technologies GmbH, Germany), an automated planar patch-clamp platform of medium throughput was used as a first step in electrophysiological assessment of α7 nAChR positive allosteric modulators (PAMs).
Briefly, intracellular (KCl—50 mM, NaCl—10 mM, KF—60 mM, EGTA—20 mM, HEPES—10 mM, pH—7.2, 285 mOsmol) and extracellular (NaCl—140 mM, KCl—4 mM, CaCl2—2 mM, MgCl2—1 mM, HEPES—10 mM, D-Glucose—5 mM, pH—7.4, 298 mOsmol) solutions were automatically pipetted onto NPC-16 chip (medium resistance ˜2.5-2.6 MΩ). Suspension of GH4C1 cells expressing rat α7 nAChRs was introduced in 4 wells of a medium resistance chip and suction was applied to attract cells in the holes. The extracellular solution was subsequently exchanged to high calcium solution (NaCl—80 mM, KCl—3 mM, CaCl2—45 mM, HEPES—10 mM, pH—7.4, 298 mOsmol) followed by gigaohm seal formation and obtaining whole-cell configuration. The rest of protocol was carried out in the high-calcium recording solution. Holding potential was −70 mV throughout the protocol. A control response to 60 or 100 μM of ACh was obtained first. Next, a cell was pre-incubated with compound of interest at 3 μM for ˜30 s after which the compound was co-applied with acetylcholine.
Amplitude of the responses was measured in HEKA Patchmaster software (HEKA Elektronik, Germany) and percentage of potentiation calculated. Recording was repeated […] a minimum of two replicates had been obtained per compound.
Compounds shown in Table 1 were evaluated by automated planar patch clamp on the Patchliner® as described in Example P2.1. […] The compounds are designated either as Type I or Type II modulators based on the electrophysiology trace. Type 1 predominately affects the peak current. Type II modulators affect the peak current and also delay the desensitization of the receptor.

T1 sequence (Q05941 23-502): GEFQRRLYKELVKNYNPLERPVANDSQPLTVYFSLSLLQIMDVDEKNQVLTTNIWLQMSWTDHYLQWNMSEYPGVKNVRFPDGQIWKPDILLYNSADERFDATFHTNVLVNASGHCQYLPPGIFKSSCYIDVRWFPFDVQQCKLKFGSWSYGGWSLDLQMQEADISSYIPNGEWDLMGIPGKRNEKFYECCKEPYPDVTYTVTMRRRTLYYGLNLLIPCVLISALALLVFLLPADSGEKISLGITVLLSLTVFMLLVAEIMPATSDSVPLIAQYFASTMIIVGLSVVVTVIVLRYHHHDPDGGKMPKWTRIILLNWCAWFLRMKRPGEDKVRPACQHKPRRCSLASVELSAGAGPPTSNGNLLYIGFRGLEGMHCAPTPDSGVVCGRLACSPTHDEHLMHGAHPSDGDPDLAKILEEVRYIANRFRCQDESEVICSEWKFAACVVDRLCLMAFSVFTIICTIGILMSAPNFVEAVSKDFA

| Compound | Type I or Type II | activation at 3 µM [%] |
| --- | --- | --- |
| CC1(C)C(c2ccc(S(N)(=O)=O)cc2)[C@H]1CNc1ccc(F)c(C(F)(F)F)c1 (mixture of isomers) [Example 33, ±trans 4-[3-({[4-fluoro-3-(trifluoromethyl)phenyl]amino}methyl)-2,2-dimethylcyclopropyl]benzenesulfonamide] | II | – |
| CC1(C)C(c2ccc(S(N)(=O)=O)cc2)[C@H]1CNc1ccc(F)cc1OC(F)F (mixture of isomers) [Example 34, ±trans 4-[3-({[2-(difluoromethoxy)-4-fluorophenyl]amino}methyl)-2,2-dimethylcyclopropyl]benzenesulfonamide] | II | – |
| CC(C)(C)c1cc(NC[C@@H]2C(c3ccc(S(N)(=O)=O)cc3)C2(C)C)no1 (mixture of isomers) [Example 35, ±trans 4-(3-{[(5-tert-butyl-1,2-oxazol-3-yl)amino]methyl)}2,2-dimethylcyclopropyl)benzenesulfonamide] | II | 57 |
| Cc1cc(F)ccc1NC[C@@H]1[C@@H](c2ccc(S(N)(=O)=O)cc2)C1(C)C (racemic) [Example 38, ±trans 4-[-3-{[(4-fluoro-2-methylphenyl)amino]methyl}-2,2-dimethylcyclopropyl]benzenesulfonamide] | II | – |
| COc1ccc(Cl)cc1NC[C@@H]1[C@@H](c2ccc(NS(C)(=O)=O)cc2)C1(C)C (racemic) [Example 46, ±trans N-{4-[3-{[(5-chloro-2-methoxyphenyl)amino]methyl}-2,2-dimethylcyclopropyl]phenyl}methanesulfonamide] | I | 783 |
| COc1ccc(Cl)cc1NC[C@@H]1[C@@H](c2ccc(NS(N)(=O)=O)cc2)C1(C)C (racemic) [Example 59, ±trans N-[4-(3-{[(5-chloro-2-methoxyphenyl)amino]methyl}-2,2-dimethylcyclopropyl)phenyl]sulfuric diamide] | I | – |
| CC1(C)[C@H](CNC2CCCCC2(F)F)[C@H]1c1ccc(S(N)(=O)=O)cc1 (relative stereo) [Example 62, trans 4-(3-{[(2,2-difluorocyclohexyl)amino]methyl}-2,2-dimethylcyclopropyl)benzenesulfonamide] | II | 38 |
| COc1ccc(Cl)cc1NC[C@@H]1[C@@H](c2ccc(NS(C)(=O)=O)cc2)C1(C)C (single isomer, unassigned; enantiomer a) [Example 47] | I | 867 |
| Cc1cc(F)ccc1NC[C@@H]1[C@@H](c2ccc(S(N)(=O)=O)cc2)C1(C)C (single isomer, unassigned; enantiomer a) [Example 57, Enantiomer A of trans 4-[3-{[(4-fluoro-2-methylphenyl)amino]methyl}-2,2-dimethylcyclopropyl]benzenesulfonamide] | I | 473 |
| Cc1cc(F)ccc1NC[C@H]1[C@H](c2ccc(S(N)(=O)=O)cc2)C1(C)C (single isomer, unassigned; enantiomer b) [Example 58, Enantiomer B of trans 4-[3-{[(4-fluoro-2-methylphenyl)amino]methyl}-2,2-dimethylcyclopropyl]benzenesulfonamide] | II | – |
| NS(=O)(=O)c1ccc([C@@H]2C[C@H]2CNc2cc(F)ccc2OC(F)(F)F)cc1 (stereo in doubt) [Example 53, 4-[(1R,2R)-2-({[5-fluoro-2-(trifluoromethoxy)phenyl]amino}methyl)cyclopropyl]benzenesulfonamide] | II | – |
| COc1ccc(Cl)cc1NC[C@H]1C[C@@H]1c1ccc(S(N)(=O)=O)cc1 [Example 1, ±trans 4-(2-{[(5-chloro-2-methoxyphenyl)amino]methyl}cyclopropyl)benzenesulfonamide] | II | – |
| NS(=O)(=O)c1ccc([C@H]2C[C@@H]2CNc2ccc(F)c(F)c2)cc1 [Example 2, ±trans 4-(2-{[(3,4-difluorophenyl)amino]methyl}cyclopropyl)benzenesulfonamide] | II | – |
| COc1ccc(Cl)cc1NC[C@@H]1[C@@H](c2ccc(S(N)(=O)=O)cc2)C1(C)C [Example 4, ±trans 4-(3-{[(5-chloro-2-methoxyphenyl)amino]methyl}-2,2-dimethylcyclopropyl)benzenesulfonamide] | II | – |
| CC1(C)[C@H](CNc2ccccc2)[C@H]1c1ccc(S(N)(=O)=O)cc1 [Example 5, ±trans 4-{2,2-dimethyl-3-[(phenylamino)methyl]cyclopropyl}benzenesulfonamide] | II | – |
| CN(C[C@@H]1[C@@H](c2ccc(S(N)(=O)=O)cc2)C1(C)C)c1ccccc1 [Example 6, ±trans 4-(2,2-dimethyl-{[methyl(phenyl)amino]methyl}cyclopropyl)benzenesulfonamide] | I | 506 |
| COc1ccc(Cl)cc1N(C)C[C@@H]1[C@@H](c2ccc(S(N)(=O)=O)cc2)C1(C)C [Example 7, ±trans 4-(3-{[(5-chloro-2-methoxyphenyl)(methyl)amino]methyl}-2,2-dimethylcyclopropyl)benzenesulfonamide] | I | 134 |
| COc1ccc(Cl)cc1NC[C@@H]1[C@@H](c2ccc(S(N)(=O)=O)cc2)C12CCCC2 [Example 8, ±trans 4-(2-{[(5-chloro-2-methoxyphenyl)amino]methyl}spiro[2.4]hept-1-yl)benzenesulfonamide] | II | – |
| CC1(C)[C@H](CNc2cncc(F)c2)[C@H]1c1ccc(S(N)(=O)=O)cc1 [Example 10, ±trans 4-[3-{[(5-fluoropyridin-3-yl)amino]methyl}-2,2-dimethylcyclopropyl]benzenesulfonamide] | II | – |
| CC1(C)[C@H](CNc2ccnc(C(F)(F)F)c2)[C@H]1c1ccc(S(N)(=O)=O)cc1 [Example 11, ±trans 4-[2,2-dimethyl-3-({[2-(trifluoromethyl)pyridin-4-yl]amino}methyl)cyclopropyl]benzenesulfonamide] | II | 15 |
| NS(=O)(=O)c1ccc([C@H]2C[C@@H]2CNc2ccc(C(F)(F)F)cn2)cc1 [Example 12, ±trans 4-[2-({[5-(trifluoromethyl)pyridin-2-yl]amino}methyl)cyclopropyl]benzenesulfonamide] | I | 401 |
| CC1(C)[C@H](CNc2ccc(F)c(F)c2)[C@H]1c1ccc(S(N)(=O)=O)cc1 [Example 14, ±trans 4-[3-{[(3,4-difluorophenyl)amino]methyl}-2,2-dimethylcyclopropyl]benzenesulfonamide] | II | – |
| CC1(C)[C@H](CNc2ccc(F)cc2C(F)(F)F)[C@H]1c1ccc(S(N)(=O)=O)cc1 [Example 15, 4-[(1R,3R)-3-({[4-fluoro-2-(trifluoromethyl)phenyl]amino}methyl)-2,2-dimethylcyclopropyl]benzenesulfonamide] | I | 413 |
| CC1(C)[C@H](CNc2cc(F)ccc2OCC(F)(F)F)[C@H]1c1ccc(S(N)(=O)=O)cc1 [Example 16, 4-[(1R,3R)-3-({[5-fluoro-2-(2,2,2-trifluoroethoxy)phenyl]amino}methyl)-2,2-dimethylcyclopropyl]benzenesulfonamide] | I | 236 |
| NS(=O)(=O)c1ccc([C@@H]2C[C@H]2CNc2ccc(F)cc2)cc1 [Example 18, 4-[(1R,2R)-2-{[(4-fluorophenyl)amino]methyl}cyclopropyl]benzenesulfonamide] | I | – |
| NS(=O)(=O)c1ccc([C@@H]2C[C@H]2CNc2ccc(C(F)(F)F)cn2)cc1 [Example 19, 4-[(1R,2R)-2-({[5-(trifluoromethyl)pyridin-2-yl]amino}methyl)cyclopropyl]benzenesulfonamide] | I | 762 |
| COc1ccccc1NC[C@@H]1[C@@H](c2ccc(S(N)(=O)=O)cc2)C1(C)C [Example 25, ±trans 4-[3-{[(2-methoxyphenyl)amino]methyl}-2,2-dimethylcyclopropyl]benzenesulfonamide] | II | – |
